This data set is described as follows: Blood (plasma) concentration of sesamin and episesamin in rats after oral administration of the mixture of sesamin-class compounds alone or simultaneously with a test substance (LC-MS/MS). The conditions noted are these: Example 3, 10 mg/kg sesamin-class compounds plus 200 μmol/kg test flavonoid glycoside in 0.5% CMC suspension.

Procedure: SD (IGS) male rats (7-wk old) were purchased from CHARLES RIVER JAPAN INC. and habituated in the test environment for a week; the animals that were seen to grow normally were selected and subjected to the test. […] After adding an internal standard (UDESMIN; Funakoshi Co., Ltd.) to the samples, solid-phase extraction was performed with Oasis HLB and the resulting solution was concentrated under vacuum, suspended in methanol, passed through a filter, and subjected to LC-MS/MS for quantification of sesamin. The quantities of the sesamin-class compounds were determined from the ratio between their peak area and that of UDESMIN used as the internal standard. […]

For the substance αG-hesperidin, the “bodily absorption amount (AUC) of the sesamin-class compounds relative to the control” value is given as 0.71 times.
